Like-named read-outs stand apart in the source and are kept apart here. Marks after values point to notes of the source that are not given here.
Columns and labels:
[1] = test system: SARS-CoV-2; experiment: Binding inhibition: pre-treatment of SARS-CoV-2 and incubation on cells; format: cell-based; conditions: virus pre-treated, surfactin 35, WLIP 20, fengycin 50, caspofungin 100 µg/mL
[2] = test system: Vero E6 cells; experiment: Cytotoxicity, CyQUANT XTT cell viability assay; format: cell-based, Chlorocebus sp.; conditions: 72 h
Protocol: Chlorocebus sp. kidney epithelial cells (Vero E6; ATCC VERO C1008) were cultured in Dulbecco’s Modified Eagle medium (DMEM) High Glucose w/ Stable Glutamine w/ Sodium Pyruvate (VWR, USA) supplemented with 2% (vol/vol) of decomplemented fetal bovine serum (FBS, Biowest, France) and 1% (vol/vol) Penicillin-Streptomycin (VWR, USA). The cells were grown at 37°C in a humidified 5% CO2 atmosphere. Cells were routinely passaged when they reached 100% confluence and were passaged until passage 15.
The cytotoxic activity of the lipopeptides was assessed using a CyQUANT XTT Cell Viability Assay (Thermo Fisher Scientific) according to the manufacturer’s instructions. […] The cells were then incubated for 72 h at 37°C. The kit was then used following the manufacturer’s instructions, and the plates were read at 450 nm and 660 nm using a Multiskan GO Microplate Spectrophotometer (Thermo Fisher Scientific). The percentage of viable cells was calculated as (AT450 − AT660 − AB450) / (AC450 − AC660) × 100%, where AT450, AT660, AB450, AC450, and AC660 represent the absorbance of the tested well at 450 nm, of the tested well at 660 nm, of the blank (only medium) at 450 nm, of the control cells at 450 nm, and of the control cells at 660 nm, respectively. One hundred percent viability corresponds to the viability of uninfected cells. DMSO concentrations ranging from 0.5% (vol/vol) to 0.001% (vol/vol) were used as a negative control for the assay. Every sample was tested in triplicate.

[3] = test system: SARS-CoV-2; conditions: surfactin 35, WLIP 20, fengycin 50, caspofungin 100 µg/mL; 100% = untreated infected cells at 37°C
Protocol: To determine the impact of lipopeptides on the fusion step, intracellular viral RNA was quantified after infection of cells with SARS-CoV-2 but before the budding step. […] The cells were pre-chilled for 15 min on ice. The cells were infected with SARS-CoV-2 (MOI of 10) in DMEM + 2% FBS and incubated for 2 h on ice with gentle agitation. The inoculum was removed, and the cells were gently washed three times with ice-cold DPBS. The positive control was inactivated to determine the basal viral RNA concentration after binding of the virus. The lipopeptides were added to room temperature DMEM + 2% (vol/vol) FBS and incubated at 37°C for 7 h. […] The cells were rinsed with DPBS, and the wells were dried. The samples were inactivated for 30 min at 70°C before quantification of the viral RNA by RT-qPCR. Every sample was tested in triplicate.

[4] = test system: SARS-CoV-2; format: cell-based; conditions: cells pre-treated, surfactin 35, WLIP 20, fengycin 50, caspofungin 100 µg/mL
[5] = test system: SARS-CoV-2; experiment: Replication / antiviral assay, viral RNA in supernatant by RT-qPCR; format: cell-based; conditions: for Reduction of viral RNA concentration: serum diluted five times, vs infected cells (Fig. 6)
[6] = test system: SARS-CoV-2; experiment: Binding inhibition: pre-infection treatment of cells; format: cell-based; conditions: cells pre-treated and cleared from unbound lipopeptide before infection; fengycin 50 µg/mL
Protocol: For the binding inhibition assays, four different conditions (Fig. 1) were tested to assess the potential of lipopeptides to inhibit the attachment of SARS-CoV-2 to cells in different settings. […] In these assays, SARS-CoV-2 was used at an MOI of 10, and every sample was tested in triplicate. Some steps were performed at 4°C to rigidify the cellular and viral membranes, allowing the virus to bind to the cells but not fuse with the […], as detailed below.
The cell supernatant was discarded, and the lipopeptides were added to the cells, which were subsequently incubated for 1 h at 37°C with gentle agitation. […] The viral stock was then added to the cells, which were subsequently incubated on ice for 1 h with gentle agitation.

Substance: Fengycin
- Binding percentage of SARS-CoV-2 to cells [1]: 21.7%
- Cell viability ([2]; 100 µg/mL, Vero E6): 64.1%
- IC50 (half maximal inhibitory concentration, cytotoxicity) ([2]; Vero E6 cells, XTT, mean (standard deviation), fengycin and caspofungin determined at higher concentrations in a subsequent experiment): 295.3 (28.3)^b µg/mL
- Cell viability ([2]; surfactin 35, WLIP 20, fengycin 50, caspofungin 100 µg/mL, Vero E6 (Fig. 5)): 89.9%
- Fusion percentage [3]: 17.2%
- Binding percentage of SARS-CoV-2 to cells [4]: 11.3%
- Reduction of viral RNA concentration ([5]; 24 h pi, surfactin 35, WLIP 20, fengycin 50, caspofungin 100 µg/mL): did not reduce the RNA concentration
- Reduction of viral RNA concentration ([5]; 72 h pi, surfactin 35, WLIP 20, fengycin 50, caspofungin 100 µg/mL): 0.6 log
- EC50 (half maximal effective concentration) ([5]; SARS-CoV-2 MOI 0.01, Vero E6, viral RNA at 72 h pi by RT-qPCR, mean (standard deviation)): 71.7 (20.7) µg/mL
- Reduction in viral RNA ([5]; surfactin 35, WLIP 20, fengycin 50, caspofungin 100 µg/mL, 72 h (Fig. 5)): 3.2 log
- Binding percentage of SARS-CoV-2 to cells [6]: 54%

Source: paper PMC11577759, “The structure of lipopeptides impacts their antiviral activity and mode of action against SARS-CoV-2 in vitro” (Applied and Environmental Microbiology, 2024)
